Laboratory results taken from US8163768B2, “1,4-dihydropyridine-fused heterocycles, process for preparing the same, use and compositions containing them” (Aventis Pharma S.A.., priority 2005, dated 2012).
Structures can show the parent of a compound that is named as a salt.

Experiments:
Aurora2 (Aurora-A) = molecular target: T1, Aurora2 (Aurora-A) (Homo sapiens, UniProt O14965); assay: Aurora 2 (Aurora A) kinase radioactivity scintillation assay using nickel chelate Flash plates; format: biochemical; conditions: 10 nM Aurora-A, 500 nM NuMA substrate, 1 μM ATP with [33P] ATP, 10 mM MgCl2, 30 minutes, 37° C.
T1 construct: Aurora-A: the full length recombinant protein including an N-terminal poly-histidine tail has been expressed in E. coli; poly-histidine (N); made in house; host or cells: E. coli
T1 sequence (O14965 1-403): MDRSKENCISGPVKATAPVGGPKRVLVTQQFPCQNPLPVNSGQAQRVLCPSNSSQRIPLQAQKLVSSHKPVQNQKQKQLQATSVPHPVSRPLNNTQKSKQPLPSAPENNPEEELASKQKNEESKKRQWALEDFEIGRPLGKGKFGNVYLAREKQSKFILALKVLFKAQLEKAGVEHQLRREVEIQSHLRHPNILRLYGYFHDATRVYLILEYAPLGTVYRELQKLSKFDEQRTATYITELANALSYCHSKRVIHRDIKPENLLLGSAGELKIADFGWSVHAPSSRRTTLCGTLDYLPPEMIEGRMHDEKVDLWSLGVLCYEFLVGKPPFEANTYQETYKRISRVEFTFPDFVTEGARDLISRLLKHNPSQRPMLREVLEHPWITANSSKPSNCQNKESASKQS
Summary of the method: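 10 nM Aurora-B or Aurora-A with 500 nM NuMA-His substrate, 1 μM ATP plus [³³P]ATP, in 50 mM NaCl, 1 mM DTT and 5 mM (B) or 10 mM (A) MgCl2, 30 min at 37° C on nickel-chelate plates. Incorporated ³³P counted after washing, background-subtracted; IC50 fitted from % inhibition versus concentration.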

Aurora1 (Aurora-B) = molecular target: T2, Aurora1 (Aurora-B) (Homo sapiens, UniProt Q96GD4); assay: Aurora 1 (Aurora B) kinase radioactivity scintillation assay using nickel chelate Flash plates; format: biochemical; conditions: 10 nM Aurora-B (co expressed with C3 fragment of INCEP), 500 nM NuMA substrate, 1 μM ATP with [33P] ATP, 5 mM MgCl2, 30 minutes, 37° C.
T2 construct: Aurora-B: the full length protein (His tagged in N-terminal) has been co expressed in SF9 cells; poly-histidine (N); made in house; host or cells: SF9 cells
Experimental: Aurora 1 and 2 (Respectively. Aurora B and A)
The inhibitory effect of compounds with respect to the Aurora 1 and 2 kinases is determined with a radioactivity scintillation assay using nickel chelate.
The kinase activity of Aurora is measured by the phosphorylation of NuMA-histidine substrate in the presence of radiolabelled ATP ([^33P] ATP) using 96 well Flash plates where the nickel-chelate is linked to the surface of the microplate. The amount of ^33P incorporated to the substrate NuMA is proportional to the aurora activity.
The Flash plates used are nickel-chelate 96 well plates (Perkin Elmer, model SMP107).
The products to be evaluated are incubated in a 100 μl reaction volume per well in the presence of 10 nM of Aurora-B or Aurora-A, 500 nM of NuMA substrate in the following buffer: 50 mM of NaCl, 5 mM MgCl2, (Aurora-B) or 10 mM MgCl2 (Aurora-A) and 1 mM of DTT at 37° C.
80 μL of enzyme/substrate incubation buffer is distributed in each well, followed by 10 μL of solution of compound to be measured with various concentrations. The reaction is started by adding 1 μM of ATP (final concentration) containing 0.2 μCi of [^33P] ATP (10 μL). After 30 minutes of incubation the reaction is stopped by removal of the reaction mixture and each well is washed twice with 300 μl of buffer Tris/HCl. The radioactivity is measured in each well using a Packard Top count scintillation counter instrument.
The enzymatic activity is expressed as counts per minute obtained in 30 minutes after subtraction of the background noise (reaction medium without enzyme). The measurement is expressed as percentage of inhibition of Aurora activity versus the control. To generate IC50 values, compounds of the invention are tested at different concentration and the percentage of inhibition are plotted as function of compound concentration, IC50s are calculated using the Xlfit 4 curve fitting software.

T2 sequence (Q96GD4 whole entry, species assumed, the tested form may be a part): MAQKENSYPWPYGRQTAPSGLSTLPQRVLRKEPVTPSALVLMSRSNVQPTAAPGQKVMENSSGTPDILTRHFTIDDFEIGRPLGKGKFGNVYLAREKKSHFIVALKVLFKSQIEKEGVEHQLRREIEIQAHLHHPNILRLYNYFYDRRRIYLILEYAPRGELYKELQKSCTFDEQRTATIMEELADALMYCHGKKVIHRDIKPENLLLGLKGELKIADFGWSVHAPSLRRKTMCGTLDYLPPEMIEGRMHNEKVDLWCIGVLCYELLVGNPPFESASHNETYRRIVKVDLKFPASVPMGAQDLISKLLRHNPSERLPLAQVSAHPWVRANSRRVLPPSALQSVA
T2 sequence (Q9NQS7 821-918 partner limits assumed, species assumed): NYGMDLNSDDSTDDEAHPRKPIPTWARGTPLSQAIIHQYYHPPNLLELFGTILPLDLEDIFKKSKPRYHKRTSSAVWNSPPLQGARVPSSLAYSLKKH

| IC50 (Aurora2 (Aurora-A)) | IC50 (Aurora1 (Aurora-B)) | SMILES |
| --- | --- | --- |
| 29 nM | 10 nM | O=C1CCCCC2=C1C(c1ccc(Sc3nc4ccccc4[nH]3)o1)c1c[nH]nc1N2 (stereo not shown) [Example 41, 4-[5-(1H-Benzoimidazol-2-ylsulfanyl)-furan-2-yl]-4,6,7,8,9,10-hexahydro-2H-1,2,10-triaza-cyclohepta[f]inden-5-one; compound with trifluoro-acetic acid] |
| 508 nM | 17 nM | O=C1OCC2=C1C(c1ccc(Sc3nc4ccccc4[nH]3)o1)c1c[nH]nc1N2 (stereo not shown) [Example 42, 4-[5-(1H-Benzoimidazol-2-ylsulfanyl)-furan-2-yl]-2,4,7,8-tetrahydro-6-oxa-1,2,8-triaza-s-indacen-5-one; compound with trifluoro-acetic acid] |
| 14 nM | 4 nM | CC(C)C1CC(=O)C2=C(C1)Nc1n[nH]cc1C2c1ccc(Sc2nc3ccccc3[nH]2)o1 (stereo not shown) [Example 31, 4-[5-(1H-Benzimidazol-2-ylsulfanyl)-furan-2-yl]-7-isopropyl-2,4,6,7,8,9-hexahydro-pyrazolo[3,4-b]quinolin-5-one; compound with trifluoro-acetic acid] |
| 20 nM | 6 nM | Cc1ccc2[nH]c(Sc3ccc(C4C5=C(CC(C)(C)CC5=O)Nc5n[nH]cc54)o3)nc2c1 (stereo not shown) [Example 72, 7,7-Dimethyl-4-[5-(5-methyl-1H-benzimidazol-2-ylsulfanyl)-furan-2-yl]-2,4,6,7,8,9-hexahydro-pyrazolo[3,4-b]quinolin-5-one] |
| 70 nM | 15 nM | COc1ccc2[nH]c(Sc3ccc(C4C5=C(CCCC5=O)Nc5n[nH]cc54)o3)nc2c1 (stereo not shown) [Example 79, 4-[5-(5-Methoxy-1H-benzimidazol-2-ylsulfanyl)-furan-2-yl]-2,4,6,7,8,9-hexahydro-pyrazolo[3,4-b]quinolin-5-one; compound with trifluoro-acetic acid] |
| 15 nM | 4 nM | CC1(C)CC(=O)C2=C(C1)Nc1n[nH]cc1C2c1ccc(Sc2nc3ccccc3[nH]2)o1 (stereo not shown) [Example 4, 4-[5-(1H-Benzimidazol-2-ylsulfanyl)-furan-2-yl]-7,7-dimethyl-2,4,6,7,8,9-hexahydro-pyrazolo[3,4-b]quinolin-5-one] |
| 134 nM | 38 nM | COc1ccccc1C1CC(=O)C2=C(C1)Nc1n[nH]cc1C2c1ccc(Sc2nc3ccccc3[nH]2)o1 (stereo not shown) [Example 39, 4-[5-(1H-Benzimidazol-2-ylsulfanyl)-furan-2-yl]-7-(2-methoxy-phenyl)-2,4,6,7,8,9-hexahydro-pyrazolo[3,4-b]quinolin-5-one; compound with trifluoro-acetic acid] |
| 22 nM | 8 nM | CC1(C)CC(=O)C2=C(C1)Nc1n[nH]cc1C2c1ccc(Sc2nc3cc(Cl)c(Cl)cc3[nH]2)o1 (stereo not shown) [Example 87, 4-[5-(5,6-Dichloro-1H-benzoimidazol-2-ylsulfanyl)-furan-2-yl]-7,7-dimethyl-2,4,6,7,8,9-hexahydro-pyrazolo[3,4-b]quinolin-5-one] |
| 495 nM | 41 nM | COc1ccc2[nH]c(Sc3ccc(C4C5=C(CNCC5=O)Nc5n[nH]cc54)o3)nc2c1 (stereo not shown) [Example 80, 4-[5-(5-Methoxy-1H-benzimidazol-2-ylsulfanyl)-furan-2-yl]-2,4,6,7,8,9-hexahydro-pyrazolo[3,4-b]-1,7-naphthyridin-5-one; compound with trifluoro-acetic acid] |
| 120 nM | 22 nM | CCOC(=O)c1[nH]cc2c1NC1=C(C(=O)CNC1)C2c1ccc(Sc2nc3cc(Cl)c(C)cc3[nH]2)o1 (stereo not shown) [Example 135, 9-[5-(5-Chloro-6-methyl-1H-benzimidazol-2-ylsulfanyl)-furan-2-yl]-8-oxo-4,5,6,7,8,9-hexahydro-2H-pyrrolo[3,4-b]-1,7-naphthyridine-3-carboxylic acid ethyl ester hydrochloride] |

Second part, the compound before the results:

| SMILES | IC50 (Aurora2 (Aurora-A)) | IC50 (Aurora1 (Aurora-B)) |
| --- | --- | --- |
| O=C1CC(c2ccccc2F)CC2=C1C(c1ccc(Sc3nc4ccccc4[nH]3)o1)c1c[nH]nc1N2 (stereo not shown) [Example 38, 4-[5-(1H-Benzimidazol-2-ylsulfanyl)-furan-2-yl]-7-(2-fluoro-phenyl)-2,4,6,7,8,9-hexahydro-pyrazolo[3,4-b]quinolin-5-one; compound with trifluoro-acetic acid] | 18 nM | 7 nM |
| O=C1CN(CC(O)CN2CCCCC2)CC2=C1C(c1ccc(Sc3nc4ccccc4[nH]3)o1)c1c[nH]nc1N2 (stereo not shown) [Example 45, 4-[5-(1H-Benzimidazol-2-ylsulfanyl)-furan-2-yl]-7-(2-hydroxy-3-piperidin-1-yl-propyl)-2,4,6,7,8,9-hexahydro-pyrazolo[3,4-b]-1,7-naphthyridin-5-one; compound with trifluoro-acetic acid] | 887 nM | 43 nM |
| Cn1c(-c2ccc(Cl)cc2)cnc1Sc1ccc(C2C3=C(CC(C)(C)CC3=O)Nc3n[nH]cc32)o1 (stereo not shown) [Example 93, 4-{5-[5-(4-Chloro-phenyl)-1-methyl-1H-imidazol-2-ylsulfanyl]-furan-2-yl}-7,7-dimethyl-2,4,6,7,8,9-hexahydro-pyrazolo[3,4-b]quinolin-5-one] | 1360 nM | 156 nM |
| CCOC(=O)c1[nH]cc2c1NC1=C(C(=O)CCC1)C2c1ccc(Sc2nc3cc(C(F)(F)F)ccc3[nH]2)o1 (stereo not shown) [Example 132, 8-Oxo-9-[5-(5-trifluoromethyl-1H-benzimidazol-2-ylsulfanyl)-furan-2-yl]-4,5,6,7,8,9-hexahydro-2H-pyrrolo[3,4-b]quinoline-3-carboxylic acid ethyl ester] | 114 nM | 14 nM |
| Cc1ccc2[nH]c(Sc3ccc(C4C5=C(CCCC5=O)Nc5[nH]ncc54)s3)nc2c1 (stereo not shown) [Example 101, 4-[5-(5-Methyl-1H-benzimidazol-2-ylsulfanyl)-thiophen-2-yl]-1,4,6,7,8,9-hexahydro-pyrazolo[3,4-b]quinolin-5-one] | 1710 nM | 60 nM |
| CCOC(=O)c1[nH]cc2c1NC1=C(C(=O)CN(C(=O)OC(C)(C)C)C1)C2c1ccc(Sc2nc3cc4c(cc3[nH]2)OC(F)(F)O4)o1 (stereo not shown) [Example 140] | 3900 nM | 1660 nM |
| O=C1CCCC2=C1C(c1ccc(Sc3nc4cc(Cl)ccc4o3)o1)c1c[nH]nc1N2 (stereo not shown) [Example 88, 4-[5-(5-Chloro-benzoxazol-2-ylsulfanyl)-furan-2-yl]-2,4,6,7,8,9-hexahydro-pyrazolo[3,4-b]quinolin-5-one; compound with trifluoro-acetic acid] | 362 nM | 91 nM |
| CCOC(=O)c1[nH]cc2c1NC1=C(C(=O)CCC1)C2c1ccc(Sc2nc3cc4c(cc3[nH]2)OC(F)(F)O4)o1 (stereo not shown) [Example 139, 9-[5-(2,2-Difluoro-5H-[1,3]dioxolo[4′,5′:4,5]benzo[1,2-d]imidazol-6-ylsulfanyl)-furan-2-yl]-8-oxo-4,5,6,7,8,9-hexahydro-2H-pyrrolo[3,4-b]quinoline-3-carboxylic acid ethyl ester] | 124 nM | 19 nM |
| CCOC(=O)c1[nH]cc2c1NC1=C(C(=O)CCC1)C2c1ccc(Sc2nc3cc(Cl)cc(C)c3[nH]2)o1 (stereo not shown) [Example 136, 9-[5-(5-Chloro-7-methyl-1H-benzimidazol-2-ylsulfanyl)-furan-2-yl]-8-oxo-4,5,6,7,8,9-hexahydro-2H-pyrrolo[3,4-b]quinoline-3-carboxylic acid ethyl ester] | 18 nM | 12 nM |
| CCOC(=O)c1[nH]cc2c1NC1=C(C(=O)CNC1)C2c1ccc(Sc2nc3cc(F)cc(F)c3[nH]2)o1 (stereo not shown) [Example 143, 9-[5-(5,7-Difluoro-1H-benzimidazol-2-ylsulfanyl)-furan-2-yl]-8-oxo-4,5,6,7,8,9-hexahydro-2H-pyrrolo[3,4-b]-1,7-naphthyridine-3-carboxylic acid ethyl ester hydrochloride] | 26 nM | 7 nM |
